{"source": "ChEMBL document CHEMBL1155098", "about": "“Synthesis and binding studies of 2-O- and 11-O-substituted N-alkylnoraporphines” (Bioorg Med Chem Lett, 2008)", "key": {"D(1A) dopamine receptor": {"target": "D(1A) dopamine receptor (Rattus norvegicus, UniProt P18901)", "sequence (P18901 whole entry)": "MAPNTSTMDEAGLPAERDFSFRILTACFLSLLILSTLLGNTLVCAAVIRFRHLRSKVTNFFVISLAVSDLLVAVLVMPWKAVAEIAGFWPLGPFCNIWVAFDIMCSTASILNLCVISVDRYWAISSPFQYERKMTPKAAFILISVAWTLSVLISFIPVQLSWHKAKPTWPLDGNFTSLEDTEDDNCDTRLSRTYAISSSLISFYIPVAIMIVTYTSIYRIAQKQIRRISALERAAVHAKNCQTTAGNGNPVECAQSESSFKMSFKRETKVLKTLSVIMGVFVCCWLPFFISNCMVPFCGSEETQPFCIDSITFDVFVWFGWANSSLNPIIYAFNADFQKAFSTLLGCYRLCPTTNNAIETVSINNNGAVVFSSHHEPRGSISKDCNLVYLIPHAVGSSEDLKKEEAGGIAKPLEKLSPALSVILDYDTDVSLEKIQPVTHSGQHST", "assay": "Displacement of [3H]SCH23390 from dopamine D1 receptor in rat corpus striatum"}, "[1]": {"target": "T1, 5-hydroxytryptamine receptor 1A (Rattus norvegicus, UniProt P19327)", "T1 sequence (P19327 whole entry)": "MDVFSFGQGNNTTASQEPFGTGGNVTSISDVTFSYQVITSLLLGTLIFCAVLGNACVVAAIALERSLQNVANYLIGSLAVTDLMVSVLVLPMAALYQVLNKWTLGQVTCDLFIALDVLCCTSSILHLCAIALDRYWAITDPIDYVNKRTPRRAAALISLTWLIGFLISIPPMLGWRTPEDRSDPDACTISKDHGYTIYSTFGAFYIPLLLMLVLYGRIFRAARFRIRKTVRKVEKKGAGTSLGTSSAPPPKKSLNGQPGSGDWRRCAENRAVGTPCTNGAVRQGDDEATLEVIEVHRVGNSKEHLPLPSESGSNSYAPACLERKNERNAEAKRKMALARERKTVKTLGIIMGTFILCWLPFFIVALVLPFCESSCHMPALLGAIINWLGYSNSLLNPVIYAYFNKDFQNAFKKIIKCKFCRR", "assay": "Displacement of [3H]8-OH-DPAT from Serotonin 5-HT1A receptor in rat corpus striatum"}, "Rattus norvegicus": {"organism": "Rattus norvegicus", "assay": "Selectivity ratio of […] in rat corpus striatum", "assay_type": "tissue-based"}, "D(2) dopamine receptor": {"target": "D(2) dopamine receptor (Rattus norvegicus, UniProt P61169)", "sequence (P61169 whole entry)": "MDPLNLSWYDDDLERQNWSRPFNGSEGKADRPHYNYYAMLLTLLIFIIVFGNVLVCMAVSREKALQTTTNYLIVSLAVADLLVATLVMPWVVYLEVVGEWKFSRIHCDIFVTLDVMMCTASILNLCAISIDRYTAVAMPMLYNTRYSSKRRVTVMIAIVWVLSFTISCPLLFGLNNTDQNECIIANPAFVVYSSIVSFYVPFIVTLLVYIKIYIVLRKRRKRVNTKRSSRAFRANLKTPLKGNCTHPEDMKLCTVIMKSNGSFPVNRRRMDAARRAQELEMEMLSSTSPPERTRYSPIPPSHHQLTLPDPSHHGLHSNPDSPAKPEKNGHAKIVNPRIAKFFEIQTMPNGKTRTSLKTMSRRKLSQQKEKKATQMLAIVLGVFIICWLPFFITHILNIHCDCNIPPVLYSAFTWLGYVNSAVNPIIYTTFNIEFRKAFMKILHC", "assay": "Displacement of [3H]neomonapride from dopamine D2 receptor in rat corpus striatum"}}}
{"smiles": "COc1cc2c3c(c1)-c1ccccc1C[C@H]3N(C)CC2", "values": [{"measurement": "Ki", "setting": "D(1A) dopamine receptor", "result": 1.3, "unit": "µM"}, {"measurement": "Ki", "setting": "[1]", "result": 2660, "unit": "nM"}, {"measurement": "Ratio", "setting": "Rattus norvegicus", "result": 1.8}, {"measurement": "Ki", "setting": "D(2) dopamine receptor", "result": 731, "unit": "nM"}]}
{"smiles": "CCCN1CCc2cc(OCCO)cc3c2[C@H]1Cc1cccc(O)c1-3", "values": [{"measurement": "Ki", "setting": "D(1A) dopamine receptor", "result": "> 10", "unit": "µM"}, {"measurement": "Ratio", "setting": "Rattus norvegicus", "result": "> 103"}, {"measurement": "Ki", "setting": "D(2) dopamine receptor", "result": 97, "unit": "nM"}]}
{"smiles": "CCCOc1cccc2c1-c1cc(O)cc3c1[C@@H](C2)N(C)CC3", "values": [{"measurement": "Ki", "setting": "D(1A) dopamine receptor", "result": 1.81, "unit": "µM"}]}
{"smiles": "CN1CCc2cc(O)cc3c2[C@H]1Cc1cccc(OCCO)c1-3", "values": [{"measurement": "Ki", "setting": "D(1A) dopamine receptor", "result": "> 10", "unit": "µM"}, {"measurement": "Ki", "setting": "[1]", "result": 289, "unit": "nM"}, {"measurement": "Ratio", "setting": "Rattus norvegicus", "result": 3}, {"measurement": "Ki", "setting": "D(2) dopamine receptor", "result": 3340, "unit": "nM"}]}
{"smiles": "CCOc1cccc2c1-c1cc(O)cc3c1[C@@H](C2)N(C)CC3", "values": [{"measurement": "Ki", "setting": "D(1A) dopamine receptor", "result": 3.68, "unit": "µM"}, {"measurement": "Ki", "setting": "[1]", "result": 432, "unit": "nM"}, {"measurement": "Ratio", "setting": "Rattus norvegicus", "result": 5.7}, {"measurement": "Ki", "setting": "D(2) dopamine receptor", "result": 641, "unit": "nM"}]}
{"smiles": "CCCN1CCc2cc(OC)cc3c2[C@H]1Cc1ccccc1-3", "values": [{"measurement": "Ki", "setting": "D(1A) dopamine receptor", "result": "> 10", "unit": "µM"}, {"measurement": "Ki", "setting": "[1]", "result": 1600, "unit": "nM"}]}
